Values quoted from earlier work as cited in patent publication US20240165036A1, “ENCAPSULATED VITAMIN D” (Nulixir Inc., priority 2022, published 2024).

Conditions: reference phases water and n-octanol; pH=7 unless stated otherwise

| SMILES | log P |
| --- | --- |
| N[C@@H](Cc1c[nH]c2ccc(O)cc12)C(=O)O [Dispersion 5-HTP, 5-hydroxytryptophan] | ~−2 |
| O=C(O)c1cc(C(=O)O)c2c(n1)C(=O)C(=O)c1cc(C(=O)O)[nH]c1-2 [PQQ, pyrroloquinoline quinone] | ~0.4 |
| O=C(/C=C/c1ccccc1)N1CCCC1 [(E)-1-cinnamoylpyrrolidine] | ~2.2 |
| N[C@@H](Cc1ccccc1)C(=O)O [L-phenylalanine] | ~−1.38 |
| COc1ccc(/C=C/c2cc(OC)cc(=O)o2)cc1 [yangonin] | ~2.8 |
| NCCCC(=O)O [GABA, gamma-aminobutyric acid] | ~−3 |
| COc1cc(O)c2c(=O)c(OC)c(-c3ccc(O)cc3)oc2c1 [kumatakenin] | ~2.5 |
| Cn1cnc2c1c(=O)[nH]c(=O)n2C [theobromine] | ~−0.78 |
| CCNC(=O)CC[C@H](N)C(=O)O [L-theanine] | ~−3 |
